# Data published in patent US3966824A, “P,P'-Disubstituted α-trichloromethylbenzylphenyl ethers” (University of Illinois Foundation, priority 1974, dated 1976).
# Assays:
# Musca domestica SNAIDM = test: Topical toxicity to adult female SNAIDM (susceptible) houseflies, alone and with piperonyl butoxide; type: in vivo, Musca domestica L.
# Procedure: (§1) The compounds of the present invention were tested for insecticidal activity by standard methods, and compared with the insecticidal activities of DDT and symmetrical analogs of DDT, such as methoxychlor. Toxicological methods for the determination of the topical LD50 values to adult female SNAIDM and PSR houseflies, Musca domestica L. and to Phormia regina, and LC50 values to clex pipiens quinquefas ciatus Say, and Anopheles albimanus Weid mosquitoes were described by Metcalf et al., 44 Bull. World Health Org. 363 (1971). The methods for evaluation of metabolism by mouse liver homogenate and by female RSP housefly and salt-marsh caterpillar larvae Estigmene acrea Drury, were described by Metcalf et al., 5 J. Environ. Sci. Tech. 709 (1971).
# (§2) The synergistic ratios or SR values (LD50 alone/ LD50 synergized with piperonyl butoxide) shown in Table II indicate the role of the multifunction oxidase (MFO) in detoxifying the individual compounds. Since piperonyl butoxide serves to block the action of MFO, the synergized LD50 values express the intrinsic toxicity of the compounds. With the detoxifying action of MFO enzymes blocked, the intrinsic toxicity of the compounds can thus be measured.
# Musca domestica Rsp = test: Topical toxicity to adult female Rsp (resistant) houseflies, alone and with piperonyl butoxide; type: in vivo, Musca domestica L.
# Procedure: as §1, §2
# Phormia regina = test: Topical toxicity to Phormia regina, alone and with piperonyl butoxide; type: in vivo
# Procedure: as §1, §2
# Culex fatigans larvae = test: Toxicity to Culex mosquito larvae; type: in vivo
# Procedure: as §1
# [1] = system: Anopheles albimanus larvae; test: Toxicity to Anopheles albimanus mosquito larvae; type: in vivo
# Procedure: as §1
# [2] = system: multifunction oxidase (MFO) enzymes; test: Biodegradability / metabolism by multifunction oxidase (MFO) enzymes (insects, mice, model ecosystem); type: in vitro ADME; conditions: inferred from SR values
# Excerpt: It has been found from metabolic studies on insects, and mice, using a model ecosystem and the methods described in Kapoor, et al., 18(6) J.Agr., Food Chem. 1145 (1970), Metcalf, et al., J. Environ. Sci. Technol. 709 (1971) and also in the copending application of Metcalf et al., "Insecticidal Biodegradable Analogues of DDT", Ser. No. 147,241, filed May 26, 1971, and having a common assignee with the present application, that certain p,p'-disubstituted α-trichloromethylbenzylphenyl ethers with various substituent groups are readily attacked by multifunction oxidase (MFO) enzymes, and thus are substantially biodegradable.
# as §1, with “709 (1971). […]” for “709 (1971).”
smiles,measurement,setting,value
"COc1ccc(OC(c2ccc(OC)cc2)C(Cl)(Cl)Cl)cc1 (stereo not drawn) [II, α-trichloromethyl-p-methoxybenzyl p-methoxyphenyl ether]","SR (synergistic ratio), Musca domestica SNAIDM","Musca domestica SNAIDM; LD50 alone / LD50 synergized with piperonyl butoxide, SNAIDM",22
same,LD50,"Musca domestica SNAIDM; Musca domestica, SNAIDM strain, topical, alone",300 mg/kg
same,"Topical LD50, Musca domestica SNAIDM, pb","Musca domestica SNAIDM; SNAIDM strain, topical, synergized with piperonyl butoxide (pb)",14.0 μg per g
same,"SR (synergistic ratio), Musca domestica Rsp","Musca domestica Rsp; LD50 alone / LD50 synergized with piperonyl butoxide, Rsp",> 8.7
same,LD50,"Musca domestica Rsp; Musca domestica, Rsp strain, topical, alone",> 500 mg/kg
same,"Topical LD50, Musca domestica Rsp, pb","Musca domestica Rsp; Rsp strain, topical, synergized with piperonyl butoxide (pb)",57.5 μg per g
same,"SR (synergistic ratio), Phormia regina",Phormia regina; LD50 alone / LD50 synergized with piperonyl butoxide,1.5
same,LD50,"Phormia regina; Phormia regina, topical, alone",125 mg/kg
same,"Topical LD50, Phormia regina, pb","Phormia regina; topical, synergized with piperonyl butoxide (pb)",82.5 μg per g
same,LC50 Culex fatigans larvae,Culex fatigans larvae,0.51 ppm
same,LC50 Anopheles albimanus larvae,[1],0.10 ppm
same,detoxication in susceptible and resistant houseflies,[2],rapid detoxication
